This is an account of results in patent US7442501B2, “SQV nucleic acids and polypeptides” (Massachusetts Institute of Technology, priority 2002, dated 2008).

Data set [1] addresses T1, Protein A-SQV-2 fusion protein (Caenorhabditis elegans, UniProt Q9N491).
T1 construct: protein A (modified, secreted); made in house; host or cells: COS7 cells, transient transfection; purified from culture supernatant on IgG-agarose
Briefly: Galactosyltransferase II assay, acceptor substrate specificity. The data set is classed as biochemical, C. elegans. The settings on record: for acceptor for glycosylation by SQV-2: UDP-[3H]galactose with various acceptor substrates; for Enzyme Activity: acceptor 5 mM, donor UDP-[3H]galactose. On the procedure: We assayed a recombinant Protein A-SQV-2 fusion protein expressed in COS7 cells for galactosyltransferase II activity.
Galactosyltransferase activity was assayed in vitro using UDP-[^3H]galactose together with various acceptor substrates.
A sqv-2 coding sequence encoding amino acids 25 to 330 of SQV-2, thus lacking the transmembrane domain at the amino terminus, was cloned into pDEST-CMV-protA vector as follows. The oligonucleotides 5′-[…]-3′ (SEQ ID NO:45) and 5′-[…]-3′ (SEQ ID NO:46) were used as the primers for PCR-amplification, and the resulting product was digested with EcoRI and XhoI and cloned into pENTR3C. The Gateway LR cloning reaction (Invitrogen) was used to transfer the sqv-2 ORF lacking TM into the Gateway destination vector pDEST-CMV-protA to generate a modified amino-terminal protein A fusion protein using the CMV promoter. The plasmid pDEST-CMV-protA was constructed by cloning the Gateway C.1 reading frame cassette, from the manufacturer, into pRK5F10ProteinA (Wei et al., Proc. Natl. Acad. Sci. USA 90:3885-8, 1993), which was digested with EcoRI and blunted using dNTPs, Klenow fragment and T4 DNA polymerase. This plasmid was designed to express a secreted protein A-SQV-2 (amino acids 25-330) fusion protein in mammalian cells.
COS7 cells were transiently transfected with pDEST-CMV-protA-sqv-2 using LIPOFECTAMINE (3:1 (w/w) liposome formulation of the polycationic lipid 2,3-dioleyloxy-N-[2(sperminecarboxamido)ethyl]-N,N-dimethyl-1-propanaminium trifluoroacetate (DOSPA) (Chemical Abstracts Registry name: N-[2-(2,5-bis[(3-aminopropyl)amino]-1-oxpentyl}amino)ethyl]-N,N-dimethyl-2,3-bis(9-octadecenyloxy)-1-propanaminium trifluoroacetate), and the neutral lipid dioleoyl phosphatidylethanolamine (DOPE) in membrane filtered water) (Life Technologies) in accordance with the manufacturer's instructions. […] After seventy-two hours of incubation, the fusion protein was recovered and purified from the cell culture supernatant by affinity chromatography using IgG-agarose (Wei et al., Proc. Natl. Acad. Sci. USA 90:3885-8, 1993).
Galactosyltransferase II activity was assayed using UDP-[1-^3H]Gal (NEN Life Sciences Products, 12.8 Ci/mmol) and various mono- and di-saccharide acceptor substrates, including Xylβ-O-benzyl (Bn), Xylβ-O-naphthol, Galβ-O-naphthalenemethanol (NM), GalNAcβ-O-NM, GlcNAcβ-O-NM, Galβ,14Xylβ-O-Bn, Galβ1,3GlcNAc α-O-NM, Galβ1,3Galβ-O-NM, Galβ1,4GlcNAcβ-O-NM, Galβ1,3GlcNAcβ-O-NM, GlcNAcβ1,3Galβ-O-NM, Manaα,1,6Man α-O-decenyl (Lugemwa et al., J. Biol. Chem. 271:19159-65, 1996; Sarkar et al., Carbohydr Res 329:221-33, 2000; Brown et al., Bioorg. Med. Chem. 9:815-24, 2001). […] After incubation at room temperature for 3 hours, the reaction products were diluted with 1 mL of 0.5 M NaCl and applied to a Sep-Pak C18 (100 mg; Waters). After washing with 5 ml of 0.5 M NaCl and water, the radiolabeled products were eluted with 50% methanol, dried and counted by liquid scintillation.

The target of data set [2] is T2, SQV-4 (Caenorhabditis elegans, UniProt Q19905, T2A).
T2 construct: were used for PCR-amplification of the sqv-4 ORF, and the resulting product was digested with NcoI and XhoI and cloned into pET21d; made in house; host or cells: E. coli BL21 pLysS, pET21d; soluble fraction used without purification
It is filed as biochemical, C. elegans. The settings on record: for NAD+ reduction: UDP-glucose replaced, 100 μM NAD+ and 250 μM nucleotide sugar. An excerpt:
(§1) The sqv-4 coding sequences corresponding to the wild-type, n2827, and n2840 alleles were cloned into the pET21d E. coli expression vector and transformed into BL21 pLysS. The oligonucleotides 5′-[…]-3′ (SEQ ID NO:53) and 5′-[…]-3′ (SEQ ID NO:54) were used to generate R353H n2827 and T4101 n2840 mutations, respectively, by site-directed mutagenesis. The oligonucleotides 5′-[…]-3′ (SEQ ID NO:55) and 5′-[…]-3′ (SEQ ID NO:56) were used for PCR-amplification of the sqv-4 ORF, and the resulting product was digested with NcoI and XhoI and cloned into pET21d. All three proteins have a threonine to alanine mutation in the second amino acid because of the addition of an NcoI site at the 5′ end. SQV-4 expression was induced by incubation with 1 mM IPTG for three to four hours at 37° C. E. coli were pelleted and resuspended in 50 mM Tris-HCl pH 7.5, 1 mM DTT, 1 mM EDTA, 1 mM PMSF, 2 μg/ml pepstatin A, and aprotinin and lysed using a French pressure cell. The soluble fraction was separated from the insoluble inclusion bodies by centrifugation at 12,000 g for 20 minutes.
(§2) All assays were performed at room temperature (20 to 22° C.) in 50 mM Tris-HCl, 2 mM dithiothrietol (DTT), pH 8.7. The initial velocity of the reaction was determined from time points during the first 60 seconds after addition of the SQV-4 extract.

The target in data set [3] is Streptococcus pyogenes UDP-glucose dehydrogenase (Streptococcus pyogenes, UniProt P0C0F4). The settings on record: cited from earlier work.
In data set [4] the target is T3, chicken UDP-glucose dehydrogenase (Gallus gallus, UniProt Q5F3T9).
T3 sequence (Q5F3T9 1-494): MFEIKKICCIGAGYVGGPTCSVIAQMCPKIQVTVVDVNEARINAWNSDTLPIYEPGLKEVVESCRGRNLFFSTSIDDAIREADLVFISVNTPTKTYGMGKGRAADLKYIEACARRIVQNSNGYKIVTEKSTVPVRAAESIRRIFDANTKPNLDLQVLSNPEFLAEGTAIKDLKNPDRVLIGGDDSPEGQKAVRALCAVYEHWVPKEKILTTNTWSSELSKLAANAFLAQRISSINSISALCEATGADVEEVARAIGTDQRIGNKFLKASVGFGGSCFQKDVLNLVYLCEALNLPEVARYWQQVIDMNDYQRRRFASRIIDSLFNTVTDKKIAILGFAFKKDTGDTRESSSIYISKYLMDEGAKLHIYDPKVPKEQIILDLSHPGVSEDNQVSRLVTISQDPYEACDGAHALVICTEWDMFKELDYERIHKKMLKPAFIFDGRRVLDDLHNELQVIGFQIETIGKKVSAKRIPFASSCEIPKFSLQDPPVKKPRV
The following applies: cited from earlier work.

In data set [5] the target is UDP-glucose dehydrogenase (Escherichia coli, UniProt P76373). The settings on record: cited from earlier work.
The target in data set [6] is T4, SQV-4 (Caenorhabditis elegans, UniProt Q19905, R353H/T2A).
T4 construct: were used for PCR-amplification of the sqv-4 ORF, and the resulting product was digested with NcoI and XhoI and cloned into pET21d; made in house; host or cells: E. coli BL21 pLysS, pET21d; soluble fraction used without purification
The data set is classed as biochemical, C. elegans. The following applies: bacterially expressed mutant protein.
Description: as §1, §2

T2 sequence (Q19905 whole entry T2A): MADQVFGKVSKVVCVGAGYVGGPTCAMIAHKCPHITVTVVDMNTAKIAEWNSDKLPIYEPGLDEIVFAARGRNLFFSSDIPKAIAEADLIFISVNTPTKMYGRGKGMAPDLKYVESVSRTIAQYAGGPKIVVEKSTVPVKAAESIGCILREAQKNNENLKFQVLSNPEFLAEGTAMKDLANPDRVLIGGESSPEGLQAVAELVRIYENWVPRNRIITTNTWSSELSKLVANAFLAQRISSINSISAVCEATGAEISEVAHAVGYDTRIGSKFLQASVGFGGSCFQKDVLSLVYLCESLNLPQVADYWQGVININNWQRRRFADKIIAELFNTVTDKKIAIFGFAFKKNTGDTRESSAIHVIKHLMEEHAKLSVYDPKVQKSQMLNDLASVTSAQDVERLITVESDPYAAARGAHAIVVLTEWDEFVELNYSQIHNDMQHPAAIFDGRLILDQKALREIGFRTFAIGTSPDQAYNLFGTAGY
T1 sequence (Q9N491 25-330): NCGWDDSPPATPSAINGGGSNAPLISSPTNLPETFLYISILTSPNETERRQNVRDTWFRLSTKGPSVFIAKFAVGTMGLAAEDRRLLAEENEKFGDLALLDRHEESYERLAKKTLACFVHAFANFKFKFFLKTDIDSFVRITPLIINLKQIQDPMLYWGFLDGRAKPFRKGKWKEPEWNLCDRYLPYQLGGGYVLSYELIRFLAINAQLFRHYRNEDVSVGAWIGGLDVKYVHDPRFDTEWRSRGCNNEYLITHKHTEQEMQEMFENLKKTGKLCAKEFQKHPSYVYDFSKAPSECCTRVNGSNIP
T4 sequence (Q19905 whole entry T2A/R353H): as the sequence (Q19905 whole entry T2A) above, with R353H counted along it
Chain of Streptococcus pyogenes UDP-glucose dehydrogenase (P0C0F4 whole entry): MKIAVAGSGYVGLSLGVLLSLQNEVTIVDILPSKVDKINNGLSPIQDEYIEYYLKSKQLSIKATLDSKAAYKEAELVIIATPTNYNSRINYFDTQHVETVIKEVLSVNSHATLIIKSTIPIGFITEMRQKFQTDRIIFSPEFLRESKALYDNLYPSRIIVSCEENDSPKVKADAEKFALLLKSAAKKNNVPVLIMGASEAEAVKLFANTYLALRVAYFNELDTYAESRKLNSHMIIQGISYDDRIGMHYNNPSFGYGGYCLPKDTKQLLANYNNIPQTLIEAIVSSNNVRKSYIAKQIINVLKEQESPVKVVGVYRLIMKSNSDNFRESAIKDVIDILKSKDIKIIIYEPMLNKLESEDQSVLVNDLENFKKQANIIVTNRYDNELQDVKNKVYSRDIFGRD

`O[C@@H]1[C@@H](O)[C@H](OCc2ccc3ccccc3c2)OC[C@H]1O` [Xylβ1-O-naphthol, xylose-(β1)-O-naphthalenemethanol]: in data set [1], the “acceptor for glycosylation by SQV-2” value was “None of the other acceptors tested acted as an acceptor” and the “Enzyme Activity” value is listed as 0 pmol/h/mL medium.
In the case of `Nc1nc2c(ncn2[C@@H]2O[C@H](COP(=O)(O)OP(=O)(O)O[C@H]3O[C@H](CO)[C@@H](O)[C@H](O)[C@H]3O)[C@@H](O)[C@H]2O)c(=O)[nH]1` [GDP-glucose], the “NAD+ reduction” value at SQV-4 [2] was “undetectable”.
The same measure, in the same setting: as for `Nc1ncnc2c1ncn2[C@@H]1O[C@H](COP(=O)(O)OP(=O)(O)O[C@H]2O[C@H](CO)[C@@H](O)[C@H](O)[C@H]2O)[C@@H](O)[C@H]1O` [ADP-glucose], the entry is “undetectable”.
`CC(=O)N[C@H]1[C@H](OCc2ccccc2)O[C@H](CO)[C@H](O)[C@@H]1O` [GalNAcβ1-O-Bn]: in data set [1], the “Enzyme Activity” value was determined as 0 pmol/h/mL medium.
On to `O[C@@H]1[C@@H](O)[C@H](OCc2ccccc2)OC[C@H]1O` [Xylβ1-O-Bn, xylose-(β1)-O-benzyl], for which, in data set [1], the “acceptor for glycosylation by SQV-2” value is “None of the other acceptors tested acted as an acceptor” and the “Enzyme Activity” value is listed as 0 pmol/h/mL medium.
The Km is the substrate concentration at which the rate is half of its maximum. As for `NC(=O)c1ccc[n+]([C@@H]2O[C@H](COP(=O)([O-])OP(=O)(O)OC[C@H]3O[C@@H](n4cnc5c(N)ncnc54)[C@H](O)[C@@H]3O)[C@@H](O)[C@H]2O)c1` [NAD^+], the Km at SQV-4 [2] (double-reciprocal plot of initial velocities, bacterially expressed SQV-4) was 200 µM; in data set [3], 60 µM; in data set [4], 900 µM; in data set [5] it was 50 µM.
Consider `Nc1ccn([C@@H]2O[C@H](COP(=O)(O)OP(=O)(O)O[C@H]3O[C@H](CO)[C@@H](O)[C@H](O)[C@H]3O)[C@@H](O)[C@H]2O)c(=O)n1` [CDP-glucose], for which the “NAD+ reduction” value on SQV-4 [2] is on record as “undetectable”.
On the same count and under the same terms, as for `Cc1cn([C@H]2C[C@H](O)[C@@H](COP(=O)(O)OP(=O)(O)O[C@H]3O[C@H](CO)[C@@H](O)[C@H](O)[C@H]3O)O2)c(=O)[nH]c1=O` [TDP-glucose], the entry is “undetectable”.
Consider `OC[C@H]1O[C@@H](O[C@@H]2CO[C@@H](OCc3ccccc3)[C@H](O)[C@H]2O)[C@H](O)[C@@H](O)[C@H]1O` [Galβ1,4Xylβ1-O-Bn, galactose-(β1,4)-xylose(β1)-O-benzyl], for which, in data set [1], the “acceptor for glycosylation by SQV-2” value is given as “specifically catalyzed addition of galactose” and the “Enzyme Activity” value is 2660 pmol/h/mL medium.
For `CC(=O)N[C@H]1[C@@H](OP(=O)(O)OP(=O)(O)OC[C@H]2O[C@@H](n3ccc(=O)[nH]c3=O)[C@H](O)[C@@H]2O)O[C@H](CO)[C@@H](O)[C@@H]1O` [UDP-N-acetyl-glucosamine], the “NAD+ reduction” value at SQV-4 [2] is given as “undetectable”.
As for `C=CCCCCCCCCO[C@H]1O[C@H](CO[C@H]2O[C@H](CO)[C@@H](O)[C@H](O)[C@@H]2O)[C@@H](O)[C@H](O)[C@@H]1O` [Manα1,6Manα1-O—C10], in data set [1], the “Enzyme Activity” value came out at 0 pmol/h/mL medium.

B1: SQV-4 protein that contained a histidine for arginine substitution at amino acid position 353: bacterially expressed mutant SQV-4 corresponding to the sqv-4 mutant allele n2827 (protein, UniProt Q19905 1-481, looked up, variant R353H)
UDP-glucose 6-dehydrogenase: MTDQVFGKVSKVVCVGAGYVGGPTCAMIAHKCPHITVTVVDMNTAKIAEWNSDKLPIYEPGLDEIVFAARGRNLFFSSDIPKAIAEADLIFISVNTPTKMYGRGKGMAPDLKYVESVSRTIAQYAGGPKIVVEKSTVPVKAAESIGCILREAQKNNENLKFQVLSNPEFLAEGTAMKDLANPDRVLIGGESSPEGLQAVAELVRIYENWVPRNRIITTNTWSSELSKLVANAFLAQRISSINSISAVCEATGAEISEVAHAVGYDTRIGSKFLQASVGFGGSCFQKDVLSLVYLCESLNLPQVADYWQGVININNWQRRRFADKIIAELFNTVTDKKIAIFGFAFKKNTGDTHESSAIHVIKHLMEEHAKLSVYDPKVQKSQMLNDLASVTSAQDVERLITVESDPYAAARGAHAIVVLTEWDEFVELNYSQIHNDMQHPAAIFDGRLILDQKALREIGFRTFAIGTSPDQAYNLFGTAGY
Consider B1, for which the “decrease in UDP-glucose dehydrogenase activity” value with SQV-4 [6] is given as “greater than 20 fold”.

B2: wild-type SQV-4 protein: recombinant SQV-4 protein expressed in E. coli, soluble lysate fraction (protein, UniProt Q19905 1-481, looked up)
UDP-glucose 6-dehydrogenase: MTDQVFGKVSKVVCVGAGYVGGPTCAMIAHKCPHITVTVVDMNTAKIAEWNSDKLPIYEPGLDEIVFAARGRNLFFSSDIPKAIAEADLIFISVNTPTKMYGRGKGMAPDLKYVESVSRTIAQYAGGPKIVVEKSTVPVKAAESIGCILREAQKNNENLKFQVLSNPEFLAEGTAMKDLANPDRVLIGGESSPEGLQAVAELVRIYENWVPRNRIITTNTWSSELSKLVANAFLAQRISSINSISAVCEATGAEISEVAHAVGYDTRIGSKFLQASVGFGGSCFQKDVLSLVYLCESLNLPQVADYWQGVININNWQRRRFADKIIAELFNTVTDKKIAIFGFAFKKNTGDTRESSAIHVIKHLMEEHAKLSVYDPKVQKSQMLNDLASVTSAQDVERLITVESDPYAAARGAHAIVVLTEWDEFVELNYSQIHNDMQHPAAIFDGRLILDQKALREIGFRTFAIGTSPDQAYNLFGTAGY
Turning to B2, in the data set with SQV-4 [2] (lysates vs lysates with vector alone or mutant SQV-4 protein), the “UDP-glucose dehydrogenase activity increase” value was “at least 20 fold”.
